Laboratory results from patent publication US5420282A, “Thiopyrano(2,3,4-c,d) indolyloxime ether alkylcarboxylates” (Abbott Laboratories, priority 1994, dated 1995).

Test system: calcium ionophore-induced LTB4 biosynthesis
Test: Inhibition of calcium ionophore-induced LTB4 biosynthesis in human whole blood
Type: cell-based
Details: human heparinized whole blood; 15 min preincubation at 37° C.; A23187 8.3 μM, 30 minutes; LTB4 by radioimmunoassay; read-out: IC50, inhibition of leukotriene biosynthesis in human whole blood
Procedure: Inhibition of leukotriene biosynthesis was evaluated in an assay, involving calcium ionophore-induced LTB4 biosynthesis expressed human whole blood. Human heparinized whole blood was proincubated with test compounds or vehicle for 15 min at 37° C. followed by calcium ionophore A23187 challenge (final concentration of 8.3 μM) and the reaction terminated after 30 minutes by adding two volumes of methanol containing prostaglandin B2 as an internal recovery standard. The methanol extract was analyzed for LTB4 using a commercially available radioimmunoassay.

Row | IC50 | SMILES
1 | 2.7 µM | CC1Cc2c(OCc3ccc4ccccc4n3)ccc3c2c(c(CC(C)(C)C=NOCC(=O)O)n3Cc2ccc(Cl)cc2)S1 (centres unmarked) [Example 1, 3-[1-(4-chlorobenzyl)-4-methyl-6-(quinolin-2-ylmethoxy]-4,5-dihydro-1H-thiopyrano[2,3,4-c,d]indol-2-yl]-2,2dimethylpropionaldehyde oxime-O-acetic acid]
2 | 0.4 µM | CC1Cc2c(OCc3ccc(-c4ccccc4)cn3)ccc3c2c(c(CC(C)(C)C=NOCC(=O)O)n3Cc2ccc(Cl)cc2)S1 (centres unmarked) [Example 2, 3-[1-(4-chlorobenzyl)-4-methyl-6-(5-phenylpyridin-2-ylmethoxy]-4,5-dihydro-1H-thiopyrano[2,3,4-c,d]indol-2-yl]-2,2-dimethylpropionaldehyde oxime-O-acetic acid]
